Patent publication US12624022B2, “Heterocyclic immunomodulators as PDL1 checkpoint inhibitor” (Janssen Sciences Ireland Unlimited Company, priority 2019, dated 2026)

Key:
PD-1/PD-L1 = PD-1/PD-L1 (Homo sapiens, UniProt Q9NZQ7); test: PD-1/PD-L1 biochemical protein-protein interaction assay (ALPHA); format: binding; conditions: Table 1a; 5 nM His tagged PD-L1, 5 nM biotinylated PD-1, 2 hours at 25° C.; read-out: ALPHA-LISA IC50
Protocol: Compounds were tested in protein-protein interaction assay to determine if they can specifically block the interaction between the extracellular domains of PD-1/PD-L1. Binding of the protein pairs is measured using a bead based amplified luminescent proximity homogeneous assay (ALPHA) platform. Binding of each protein pair results in proximity of the donor and acceptor beads which leads to an increase in ALPHA signal. Assays are performed in 50 mM Tris (pH 7.4), 0.0015% Triton X-100, 0.1% BSA. Final protein concentration in the assays were 5 nM (His tagged PD-L1), 5 nM (biotinylated PD-1), 10 μg/ml ALPHA assay acceptor beads, 10 μg/ml ALPHA assay donor beads. After an assay reaction time of 2 hours at 25° C., binding was measured. The specificity of the binding was determined by testing the compounds in an assay with an irrelevant protein that is both His tagged and biotinylated. The final protein concentration used in the assay was 5 nM, 10 μg/ml ALPHA assay acceptor beads, 10 μg/ml ALPHA assay donor beads. After an assay reaction time of 2 hours at 25° C., binding was measured. IC50 values were calculated from the fit of the dose-response curves to a four-parameter equation.

[1] = across the 27 clinical trials analyzed (Tie Y et al., 2016); cited from earlier work

Chain of PD-1/PD-L1 (Q9NZQ7 19-238 limits assumed): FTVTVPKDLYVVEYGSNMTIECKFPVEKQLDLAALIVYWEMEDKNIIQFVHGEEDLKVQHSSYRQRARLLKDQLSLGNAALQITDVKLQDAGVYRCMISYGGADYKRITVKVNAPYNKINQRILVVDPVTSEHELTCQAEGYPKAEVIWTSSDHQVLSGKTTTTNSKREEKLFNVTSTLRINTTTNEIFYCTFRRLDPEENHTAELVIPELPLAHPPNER

Row | Compound | IC50 (PD-1/PD-L1) [nM] | objective response rate (ORR) [1] [%]
1 | N#Cc1cccc(COc2cc(OCc3cccn(-c4ccc5c(c4)OCCO5)c3=O)c(Cl)cc2CN[C@H](CO)C(=O)O)c1 [Compound 202, (5-chloro-2-((3-cyanobenzyl)oxy)-4-((1-(2,3-dihydrobenzo[b][1,4]dioxin-6-yl)-2-oxo-1,2-dihydropyridin-3-yl)methoxy)benzyl)-D-serine] | 200 | –
2 | Opdivo: Opdivo® (Nivolumab), given as example of PD-L1/PD-1 antagonist therapy validated in clinical trials | – | 26
